Assay results: ChEMBL document CHEMBL4400584, “Relative Configurational Assignment of 4-Hydroxyprorocentrolide and Prorocentrolide C Isolated from a Benthic Dinoflagellate ( Prorocentrum lima)” (J Nat Prod, 2019)

Tests used:
Format in all cases: functional, cell-based
HCT-116 = test: Cytotoxicity against human HCT116 cells assessed as reduction in cell viability after 48 hrs by MTT assay; conditions: HCT-116, 48 h
N2a = test: Cytotoxicity against mouse Neuro2a cells assessed as reduction in cell viability after 48 hrs by MTT assay
HepG2 = test: Cytotoxicity against human HepG2 cells assessed as reduction in cell viability after 48 hrs by MTT assay; conditions: HepG2, 48 h

Structure (SMILES) | IC50 (HCT-116) [µM] | IC50 (N2a) [µM] | IC50 (HepG2) [µM]
C=C1CCC[C@H]2O[C@H](CC3=C[C@@H]4/C(C)=C/C[C@@H](C)C[C@@H](/C=C(\C)[C@@H](O)[C@@H]5C[C@@H](O)[C@H](O)[C@@H](CC[C@H](O)/C=C/C(C)=C/CCC6=NCC[C@H](C3)[C@@]64C)O5)OC(=O)C[C@@H]3O[C@H]([C@@H](O)[C@H]3O)[C@@H](O)C1)C[C@@H](O)[C@@H]2O | > 10 | > 10 | > 10
C=C1CC/C=C/[C@@H](O)[C@H](O)C[C@H](O)CC2=C[C@@H]3/C(C)=C/C[C@@H](C)C[C@@H](/C=C(\C)[C@@H](O)[C@@H]4C[C@@H](O)[C@H](O)[C@@H](CC[C@H](O)/C=C/C(C)=C/CCC5=NCC[C@H](C2)[C@@]53C)O4)OC(=O)C[C@@H]2O[C@H]([C@@H](O)[C@H]2O)[C@@H](O)C1 | 2.2 | 5.2 | > 50
